US4411909A, “[(2-Oxo-3-tetrahydrothienylcarbamoyl)-alkylthio] acetic acids, their salts and esters, a process for preparation thereof and the pharmaceutical compositions containing same” (priority 1981, dated 1983)

Assays:
[1] = tested on: bronchial mucus; experiment: test of activity in the rabbit: production/secretion of bronchial mucus (tracheal cannula, technique of Scuri et al.); type: in vivo; conditions: for variation % of secretion of mucus with respect to controls: intravenous, 10 mg/kg, 4 hours following vs 4 hours preceding treatment, versus physiological solution controls
Method: Rabbits were used weighing about 3 kg with a cannula implanted in the trachea according to the technique of Scuri et al., Boll. Chim. Farm., 119,(3), 1980. The quantity of mucus produced and excreted was recorded during the 4 hours preceding and the 4 hours following the treatment.

[2] = tested on: damage provoked by the action of sulfur dioxide on the bronchi; experiment: test of mucolytic activity based on the inhalation of SO2 in the rat; type: in vivo
Description: In the test of mucolytic activity based on the inhalation of SO2 in the rat, the compounds of the present invention have shown a good mucolytic activity.

[3] = acute toxicity in the mouse; conditions: in vivo
[4] = acute toxicity in the rat; conditions: in vivo
[5] = toxicity, overall statement; type: in vivo; conditions: in words
[6] = intravenous, read-out: LD50 i.v.

Row | Compound | activity compared with reference product carbocysteine (mucus secretion) ([1]; i.v., same dose by weight (10 mg/kg)) | variation % of secretion of mucus with respect to controls [1] | regression of bronchial damage compared with carbocysteine ([2]; PV 144 oral 500 mg/kg vs carbocysteine 500 mg/kg (3.35 mmol/kg)) | regression of the damage provoked by sulfur dioxide on the bronchi ([2]; oral, 500 mg/kg (2 mmol/kg)) | LD50 [3, 6] | LD50 ([3]; oral, read-out: LD50 oral) | LD50 [4, 6] | LD50 ([4]; oral, read-out: LD50 oral) | toxicity [5]
1 | O=C(O)CSCC(=O)NC1CCSC1=O (stereo not shown) [PV 144, [(2-oxo-3-tetrahydrothienylcarbamoyl)-methylthio]acetic acid] | at least as active as the reference product | 52.1% | qualitatively and quantitatively equal | significant regression of the damage | > 3500 mg/kg | > 10000 mg/kg | > 3500 mg/kg | > 10000 mg/kg | virtually without toxicity
2 | N[C@@H](CSCC(=O)O)C(=O)O [carbocysteine, S-carboxymethylcysteine, reference compound] |  | 51.8% |  |  |  |  |  |  | 
